Reference: the NIST ThermoML archive (doi:10.1021/je400336p)

Assay: xn = mol fraction of the nth substance listed
Details: Fluid (supercritical or subcritical phases), Taylor dispersion method, x1 = 0

CC(C)Cc1ccccc1 [(2-methylpropyl)benzene] + O=C=O
binary diffusion coefficient (313 K, 15000 kPa): 1.02e-08 m2/s | binary diffusion coefficient (313 K, 20000 kPa): 9.12e-09 m2/s | binary diffusion coefficient (313 K, 25000 kPa): 8.35e-09 m2/s | binary diffusion coefficient (313 K, 30000 kPa): 7.6e-09 m2/s | binary diffusion coefficient (313 K, 35000 kPa): 7.28e-09 m2/s | binary diffusion coefficient (323 K, 15000 kPa): 1.24e-08 m2/s | binary diffusion coefficient (323 K, 20000 kPa): 1.03e-08 m2/s | binary diffusion coefficient (323 K, 25000 kPa): 9.43e-09 m2/s | binary diffusion coefficient (323 K, 30000 kPa): 8.64e-09 m2/s | binary diffusion coefficient (323 K, 35000 kPa): 8.07e-09 m2/s | binary diffusion coefficient (333 K, 15000 kPa): 1.4e-08 m2/s | binary diffusion coefficient (333 K, 20000 kPa): 1.24e-08 m2/s | binary diffusion coefficient (333 K, 25000 kPa): 1.07e-08 m2/s | binary diffusion coefficient (333 K, 30000 kPa): 9.88e-09 m2/s | binary diffusion coefficient (333 K, 35000 kPa): 9.37e-09 m2/s

CC(C)CCc1ccccc1 [(3-methylbutyl)benzene] + O=C=O
binary diffusion coefficient (313 K, 15000 kPa): 9.63e-09 m2/s | binary diffusion coefficient (313 K, 20000 kPa): 8.71e-09 m2/s | binary diffusion coefficient (313 K, 25000 kPa): 7.72e-09 m2/s | binary diffusion coefficient (313 K, 30000 kPa): 7.24e-09 m2/s | binary diffusion coefficient (313 K, 35000 kPa): 6.79e-09 m2/s | binary diffusion coefficient (323 K, 15000 kPa): 1.11e-08 m2/s | binary diffusion coefficient (323 K, 20000 kPa): 9.92e-09 m2/s | binary diffusion coefficient (323 K, 25000 kPa): 8.94e-09 m2/s | binary diffusion coefficient (323 K, 30000 kPa): 8.4e-09 m2/s | binary diffusion coefficient (323 K, 35000 kPa): 7.57e-09 m2/s | binary diffusion coefficient (333 K, 15000 kPa): 1.32e-08 m2/s | binary diffusion coefficient (333 K, 20000 kPa): 1.16e-08 m2/s | binary diffusion coefficient (333 K, 25000 kPa): 1.02e-08 m2/s | binary diffusion coefficient (333 K, 30000 kPa): 9.21e-09 m2/s | binary diffusion coefficient (333 K, 35000 kPa): 8.62e-09 m2/s

CCC(C)c1ccccc1 (stereo not given) [(1-methylpropyl)benzene] + O=C=O
binary diffusion coefficient (313 K, 15000 kPa): 1.01e-08 m2/s | binary diffusion coefficient (313 K, 20000 kPa): 9.15e-09 m2/s | binary diffusion coefficient (313 K, 25000 kPa): 8.18e-09 m2/s | binary diffusion coefficient (313 K, 30000 kPa): 7.54e-09 m2/s | binary diffusion coefficient (313 K, 35000 kPa): 7.24e-09 m2/s | binary diffusion coefficient (323 K, 15000 kPa): 1.2e-08 m2/s | binary diffusion coefficient (323 K, 20000 kPa): 1.02e-08 m2/s | binary diffusion coefficient (323 K, 25000 kPa): 9.3e-09 m2/s | binary diffusion coefficient (323 K, 30000 kPa): 8.54e-09 m2/s | binary diffusion coefficient (323 K, 35000 kPa): 8.07e-09 m2/s | binary diffusion coefficient (333 K, 15000 kPa): 1.32e-08 m2/s | binary diffusion coefficient (333 K, 20000 kPa): 1.19e-08 m2/s | binary diffusion coefficient (333 K, 25000 kPa): 1.04e-08 m2/s | binary diffusion coefficient (333 K, 30000 kPa): 9.49e-09 m2/s | binary diffusion coefficient (333 K, 35000 kPa): 8.98e-09 m2/s
